In data set [1] the test system is γ-H2AX in HT29 and SW480 cells. Description: γ-H2AX DNA damage marker, western blot and immunofluorescence staining. Format: cell-based, human. The method, then:
After treatment, protein lysates were collected for Western blot analysis. A total of […] of protein was used for SDS-PAGE. After primary and secondary antibody incubations, the signal was detected by a chemiluminescence detection kit, imaged by Syngene (Imgen Technologies). Antibodies for PUMA (for IHC), p53 (Santa Cruz Biotechnology), caspase 8, cleaved caspase 8, caspase 9, caspase 3, cleavage PARP, eIF2α, p-eIF2α (Ser51), CHOP, ATF4, DR5, FOXO3a, p-FOXO3a (Ser253), NF-κB p65, p-NF-κB p65 (Ser536), c-Jun, p-c-Jun (Ser63), JNK, p-JNK (Thr183/Tyr185), PUMA (for WB), c-Myc, phosphor-S62-cMyc (Cell Signaling Technology), Noxa, p21 (Calbiochem), p73 (Bethyl laboratories Inc), Ran (BD Biosciences), […] (Sigma).
A total of 5×10^4 cells were seeded in each well of 8-well chamber slides. After treatment, cells were fixed and permeabilized by methanol:acetone (1:1) for 20 minutes at −20° C. Fixed cells were blocked by 2% BSA for 1 hour, followed by primary antibody incubation for 1 hours and Cy3-conjuated secondary antibody incubation for 1 hour at room temperature. After washing, cells were stained with DAPI for 10 minutes at room temperature. Cells were mounted, and examined by fluorescence microscopy.
DNA damage induces the p53 pathway and leads to cell apoptosis. To study whether the p53 pathway restoration by compound PG3-Oc is due to DNA damage, the uptake and localization of PG3-Oc was investigated in cells. PG3-Oc and prodigiosin are red fluorescent compounds, and their localization in live cells can be monitored by fluorescence microscopy. PG3-Oc and prodigiosin rapidly entered cells within 2 hours of incubation and remained in the cytosol at the 8-hour time point in HT29 and SW480 cells (FIG. 46). […] Baldino, et al. reported that prodigiosin localized to the cytoplasm, but not within the nucleus, and no γ-H2AX signal was detected in A549 cancer cells (Baldino et al., Bioorg Med Chem Lett, 2006, 16, 701-704). […]

In data set [2] the test system is panel of CRC cell lines. Description: Colony formation assay (long-term cell proliferation). Format: cell-based, human. To be noted: low dose. The method, then:
Five hundred cells were seeded per well in 6-well plates and treated with different concentrations of compounds for 24 hours, then, cells were cultured with drug-free complete medium for 2 weeks with fresh medium changed every 7 days. Cells were fixed with 10% formalin and stained with 0.05% crystal violet at the end of 2 weeks period of cell culture (Franken et al., Nat. Protoc., 2006, 1, 2315-9).

Data on 1 compound can be found in patent publication US12344599B2, “Prodigiosin analogs and methods of use” (Institute For Cancer Research, priority 2016, dated 2025).

On to `CCCCCCCCOC(=O)CCc1c(C)[nH]c(/C=C2\N=C(c3ccc[nH]3)C=C2OC)c1C` [PG3-Oc, Octyl (Z)-3-(5-((4′-methoxy-1H,5′H-[2,2′-bipyrrol]-5′-ylidene)methyl)-2,4-dimethyl-1H-pyrrol-3-yl)propanoate], for which, in data set [1], the “induction of 65-H2AX (DNA damage marker) / foci formation” value is on record as “did not induce”. In data set [2], the “inhibition in long-term cell proliferation” value is “Over 90%”.
